Data from article PMC8716824, “Design, Synthesis and Anti-Lung Cancer Evaluation of 1, 2, 3-Triazole Tethered Dihydroartemisinin-Isatin Hybrids” (Frontiers in Pharmacology, 2021).
Where two headings read alike, the source gives them in different places.

How the values were obtained:
[1] = test system: cisplatin-resistant A549 (A549/DDP) lung cancer cells; assay: MTT antiproliferative assay, A549/DDP; format: cell-based
Description: (§1) The antiproliferative activity of 1,2,3-triazole tethered dihydroartemisinin-isatin hybrids 8a-c and 9a-k against A549, multidrug-resistant A549/DOX and A549/DDP lung cancer cell lines as well as cytotoxicity towards mouse embryonic fibroblast cells NIH/3T3 were assessed by 3-(4,5-dimethylthiazol-2-yl)-2,5-diphenyltetrazolium bromide (MTT) assay, and half maximal inhibitory concentration (IC50) values were listed in Table 2. A549, A549/DOX, and A549/DDP lung cancer cells (2 × 10^3) were plated in each well of a 96-well plate and were allowed to adhere and spread for 24 h. The 1,2,3-triazole tethered dihydroartemisinin-isatin hybrids 8a-c and 9a-k were added to a final concentration of 100 μM, and the cells were cultured for 24 h at 37°C. 3-(4,5-dimethyl-2-thiazolyl)-2,5-diphenyltetrazolium bromide (MTT) solution (10 µL) was added to each well, and the cultures were incubated for an additional 4 h. A further 100 µL of […] was added and incubation continued overnight. The absorbance at 540 nm was determined in each well with a 96-well plate reader. The growth of the treated cells was compared with that of untreated cells.

[2] = test system: A549 lung cancer cells; assay: MTT antiproliferative assay, A549; format: cell-based
Description: as §1

[3] = test system: doxorubicin-resistant A549 (A549/DOX) lung cancer cells; assay: MTT antiproliferative assay, A549/DOX; format: cell-based
Description: as §1

[4] = test system: mouse embryonic fibroblast cells NIH/3T3; assay: MTT cytotoxicity assay, NIH/3T3; format: cell-based; settings: for SI (selectivity index): IC50(NIH/3T3)/IC50(A549); for IC50: cytotoxicity, NIH/3T3 cells, MTT (called CC50 in method)
Description: The antiproliferative activity of 1,2,3-triazole tethered dihydroartemisinin-isatin hybrids 8a-c and 9a-k against A549, multidrug-resistant A549/DOX and A549/DDP lung cancer cell lines as well as cytotoxicity towards mouse embryonic fibroblast cells NIH/3T3 were assessed by 3-(4,5-dimethylthiazol-2-yl)-2,5-diphenyltetrazolium bromide (MTT) assay, and half maximal inhibitory concentration (IC50) values were listed in Table 2.
The cytotoxicity (CC50) of the synthesized 1,2,3-triazole tethered dihydroartemisinin-isatin hybrids 8a-c and 9a-k were examined by the MTT assay in mouse embryonic fibroblast cells NIH/3T3. The compounds were dissolved in DMSO with concentrations from 1,024 to 1 μg/ml. The NIH/3T3 cells were maintained in culture medium at 37°C under 5% CO2 atmosphere. Cells were seeded in 96-well plates (1 × 10^4 cell per well) and allowed to recover for 24 h. After 72 h of exposure, cells were harvested and cell viability was assessed by MTT assay. The CC50 values were calculated by Bliss analy.

[5] = Stability in mouse liver microsomes; format: in vitro ADME
Description: (§2) The metabolic stability of selected hybrids 8a,c and 9i was assessed in mouse and human microsomes, and the results were listed in Table 3.

[6] = Stability in human liver microsomes; format: in vitro ADME
Description: as §2

[7] = test system: A549, A549/DOX and A549/DDP lung cancer cell lines; assay: MTT antiproliferative assay, ranges pooled over lung cancer cell lines; format: cell-based
Description: as §1

[8] = range over the three lung cancer cell lines, read-out: IC50, range over A549, A549/DOX and A549/DDP

SMILES	IC50 ([1]; A549/DDP) [µM]	IC50 ([2]; Homo sapiens) [µM]	IC50 ([3]; Homo sapiens) [µM]	Liver microsomes, Mouse [5] [%]	Liver microsomes, Human [6] [%]	IC50 ([7]; Homo sapiens, range over A549 and A549/DOX, read-out: IC50, range over A549 and A549/DOX) [µM]	IC50 [7, 8] [µM]	SI (selectivity index) [4]	IC50 ([4]; Mus musculus, NIH3T3) [µM]	IC50 [1] [µM]	IC50 [2] [µM]	IC50 [3] [µM]	IC50 ([7]; range over A549 and A549/DOX, read-out: IC50, range over A549 and A549/DOX) [µM]	IC50 [4] [µM]
C[C@@H]1CC[C@H]2[C@@H](C)C(OCc3cn(CCN4C(=O)C(=NNC(N)=S)c5ccccc54)nn3)O[C@@H]3O[C@@]4(C)CC[C@@H]1[C@]32OO4 (stereo partly drawn) [9a, 2-(2-oxo-1-(2-(4-((((3R,5aS,6R,8aS,9R,12R,12aR)-3,6,9-trimethyldecahydro-12H-3,12-epoxy[1,2]dioxepino[4,3-i]isochromen-10-yl)oxy)methyl)-1H-1,2,3-triazol-1-yl)ethyl)indolin-3-ylidene)hydrazine-1-carbothioamide]	30.9	16.3	38.4					>6.1	> 100					
C[C@@H]1CC[C@H]2[C@@H](C)C(OCc3cn(CCN4C(=O)C(=NO)c5ccccc54)nn3)O[C@@H]3O[C@@]4(C)CC[C@@H]1[C@]32OO4 (stereo partly drawn) [9b, 3-(hydroxyimino)-1-(2-(4-((((3R,5aS,6R,8aS,9R,12R,12aR)-3,6,9-trimethyldecahydro-12H-3,12-epoxy[1,2]dioxepino[4,3-i]isochromen-10-yl)oxy)methyl)-1H-1,2,3-triazol-1-yl)ethyl)indolin-2-one]	30.3	12	26.1					>8.3	> 100					
CCON=C1C(=O)N(CCn2cc(COC3O[C@@H]4O[C@@]5(C)CC[C@H]6[C@H](C)CC[C@@H]([C@H]3C)[C@@]46OO5)nn2)c2ccccc21 (stereo partly drawn) [9d, 3-(ethoxyimino)-1-(2-(4-((((3R,5aS,6R,8aS,9R,12R,12aR)-3,6,9-trimethyldecahydro-12H-3,12-epoxy[1,2]dioxepino[4,3-i]isochromen-10-yl)oxy)methyl)-1H-1,2,3-triazol-1-yl)ethyl)indolin-2-one]	33.7	25.6	20.8					>3.9	> 100					
C[C@@H]1CC[C@H]2[C@@H](C)C(OCc3cn(CCN4C(=O)C(=NOCc5ccccc5)c5ccccc54)nn3)O[C@@H]3O[C@@]4(C)CC[C@@H]1[C@]32OO4 (stereo partly drawn) [9e, 3-((benzyloxy)imino)-1-(2-(4-((((3R,5aS,6R,8aS,9R,12R,12aR)-3,6,9-trimethyldecahydro-12H-3,12-epoxy[1,2]dioxepino[4,3-i]isochromen-10-yl)oxy)methyl)-1H-1,2,3-triazol-1-yl)ethyl)indolin-2-one]	29.9	16.3	31.4					>6.1	> 100					
COc1ccc2c(c1)C(=NOCc1ccccc1)C(=O)N2CCn1cc(COC2O[C@@H]3O[C@@]4(C)CC[C@H]5[C@H](C)CC[C@@H]([C@H]2C)[C@@]35OO4)nn1 (stereo partly drawn) [9h, 3-((benzyloxy)imino)-5-methoxy-1-(2-(4-((((3R,5aS,6R,8aS,9R,12R,12aR)-3,6,9-trimethyldecahydro-12H-3,12-epoxy[1,2]dioxepino[4,3-i]isochromen-10-yl)oxy)methyl)-1H-1,2,3-triazol-1-yl)ethyl)indolin-2-one]	59.4	44.7	77.7					>2.2	> 100					
C[C@@H]1CC[C@H]2[C@@H](C)C(=O)O[C@@H]3O[C@@]4(C)CC[C@@H]1[C@]32OO4 [Artemisinin]	> 100	> 100	> 100				> 100		> 100					
C[C@H]1[C@@H](O)O[C@@H]2O[C@@]3(C)CC[C@H]4[C@H](C)CC[C@@H]1[C@@]24OO3 [DHA, Dihydroartemisinin]	75.9	69.4	88				69.4 to 88	>1.4	> 100					
N.N.[Cl][Pt][Cl] [cisplatin, reference compound]							9.38 to 66.9			66.9	9.38	19.7	9.38 to 19.7	> 100

Second part, led by results:

IC50 ([1]; A549/DDP) [µM]	IC50 ([2]; Homo sapiens) [µM]	IC50 ([3]; Homo sapiens) [µM]	Liver microsomes, Mouse [5] [%]	Liver microsomes, Human [6] [%]	IC50 ([7]; Homo sapiens, range over A549 and A549/DOX, read-out: IC50, range over A549 and A549/DOX) [µM]	IC50 [7, 8] [µM]	SMILES	SI (selectivity index) [4]	IC50 ([4]; Mus musculus, NIH3T3) [µM]	IC50 [1] [µM]	IC50 [2] [µM]	IC50 [3] [µM]	IC50 ([7]; range over A549 and A549/DOX, read-out: IC50, range over A549 and A549/DOX) [µM]	IC50 [4] [µM]
19.5	21.6	32					COc1ccc2c(c1)C(=O)C(=O)N2CCn1cc(COC2O[C@@H]3O[C@@]4(C)CC[C@H]5[C@H](C)CC[C@@H]([C@H]2C)[C@@]35OO4)nn1 (stereo partly drawn) [8b, 5-methoxy-1-(2-(4-((((3R,5aS,6R,8aS,9R,12R,12aR)-3,6,9-trimethyldecahydro-12H-3,12-epoxy[1,2]dioxepino[4,3-i]isochromen-10-yl)oxy)methyl)-1H-1,2,3-triazol-1-yl)ethyl)indoline-2,3-dione]	>4.6	> 100					
27.4	22.7	19.5					CON=C1C(=O)N(CCn2cc(COC3O[C@@H]4O[C@@]5(C)CC[C@H]6[C@H](C)CC[C@@H]([C@H]3C)[C@@]46OO5)nn2)c2ccccc21 (stereo partly drawn) [9c, 3-(methoxyimino)-1-(2-(4-((((3R,5aS,6R,8aS,9R,12R,12aR)-3,6,9-trimethyldecahydro-12H-3,12-epoxy[1,2]dioxepino[4,3-i]isochromen-10-yl)oxy)methyl)-1H-1,2,3-triazol-1-yl)ethyl)indolin-2-one]	>4.4	> 100					
51.8	65.4	79.5					CON=C1C(=O)N(CCn2cc(COC3O[C@@H]4O[C@@]5(C)CC[C@H]6[C@H](C)CC[C@@H]([C@H]3C)[C@@]46OO5)nn2)c2ccc(OC)cc21 (stereo partly drawn) [9f, 5-methoxy-3-(methoxyimino)-1-(2-(4-((((3R,5aS,6R,8aS,9R,12R,12aR)-3,6,9-trimethyldecahydro-12H-3,12-epoxy[1,2]dioxepino[4,3-i]isochromen-10-yl)oxy)methyl)-1H-1,2,3-triazol-1-yl)ethyl)indolin-2-one]	>1.5	> 100					
61.7	73.8	45					CCON=C1C(=O)N(CCn2cc(COC3O[C@@H]4O[C@@]5(C)CC[C@H]6[C@H](C)CC[C@@H]([C@H]3C)[C@@]46OO5)nn2)c2ccc(OC)cc21 (stereo partly drawn) [9g, 3-(ethoxyimino)-5-methoxy-1-(2-(4-((((3R,5aS,6R,8aS,9R,12R,12aR)-3,6,9-trimethyldecahydro-12H-3,12-epoxy[1,2]dioxepino[4,3-i]isochromen-10-yl)oxy)methyl)-1H-1,2,3-triazol-1-yl)ethyl)indolin-2-one]	>1.3	> 100					
14.3	9.1	15.9	46	60	7.54 to 15.9	9.1 to 15.9	C[C@@H]1CC[C@H]2[C@@H](C)C(OCc3cn(CCN4C(=O)C(=NO)c5cc(F)ccc54)nn3)O[C@@H]3O[C@@]4(C)CC[C@@H]1[C@]32OO4 (stereo partly drawn) [9i, 5-fluoro-3-(hydroxyimino)-1-(2-(4-((((3R,5aS,6R,8aS,9R,12R,12aR)-3,6,9-trimethyldecahydro-12H-3,12-epoxy[1,2]dioxepino[4,3-i]isochromen-10-yl)oxy)methyl)-1H-1,2,3-triazol-1-yl)ethyl)indolin-2-one]	>11.0	> 100					
38.2	9.61	13					CON=C1C(=O)N(CCn2cc(COC3O[C@@H]4O[C@@]5(C)CC[C@H]6[C@H](C)CC[C@@H]([C@H]3C)[C@@]46OO5)nn2)c2ccc(F)cc21 (stereo partly drawn) [9j, 5-fluoro-3-(methoxyimino)-1-(2-(4-((((3R,5aS,6R,8aS,9R,12R,12aR)-3,6,9-trimethyldecahydro-12H-3,12-epoxy[1,2]dioxepino[4,3-i]isochromen-10-yl)oxy)methyl)-1H-1,2,3-triazol-1-yl)ethyl)indolin-2-one]	>10.4	> 100					
28.7	15.8	31.1					CCON=C1C(=O)N(CCn2cc(COC3O[C@@H]4O[C@@]5(C)CC[C@H]6[C@H](C)CC[C@@H]([C@H]3C)[C@@]46OO5)nn2)c2ccc(F)cc21 (stereo partly drawn) [9k, 3-(ethoxyimino)-5-fluoro-1-(2-(4-((((3R,5aS,6R,8aS,9R,12R,12aR)-3,6,9-trimethyldecahydro-12H-3,12-epoxy[1,2]dioxepino[4,3-i]isochromen-10-yl)oxy)methyl)-1H-1,2,3-triazol-1-yl)ethyl)indolin-2-one]	>6.3	> 100					
